# Data as given in PubChem BioAssay (NCI).
#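 Exposure lasted 48 hours, with cells grown in 96-well plates and compounds tested at five concentrations. GI50: concentration for 50% inhibition of growth. TGI is the concentration that stops growth completely.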
# Columns and labels:
# Assay in all cases: inhibition of tumour cell growth, NCI panel, 48 h
# NCI-H23 lung = system: NCI-H23 lung
# NCI-H460 lung = system: NCI-H460 lung
# NCI-H522 lung = system: NCI-H522 lung
# NCI/ADR-RES ovarian = system: NCI/ADR-RES ovarian
# OVCAR-3 ovarian = system: OVCAR-3 ovarian
# OVCAR-4 ovarian = system: OVCAR-4 ovarian
# OVCAR-5 ovarian = system: OVCAR-5 ovarian
# OVCAR-8 ovarian = system: OVCAR-8 ovarian
# PC-3 prostate = system: PC-3 prostate
# RPMI-8226 leukemia = system: RPMI-8226 leukemia
# RXF 393 renal = system: RXF 393 renal
# SF-268 CNS = system: SF-268 CNS
# SF-295 CNS = system: SF-295 CNS
# SF-539 CNS = system: SF-539 CNS
# SK-MEL-2 melanoma = system: SK-MEL-2 melanoma
# SK-MEL-28 melanoma = system: SK-MEL-28 melanoma
# SK-MEL-5 melanoma = system: SK-MEL-5 melanoma
# SK-OV-3 ovarian = system: SK-OV-3 ovarian
# SN12C renal = system: SN12C renal
# SNB-19 CNS = system: SNB-19 CNS
# SNB-75 CNS = system: SNB-75 CNS
# SR leukemia = system: SR leukemia
# SW-620 colon = system: SW-620 colon
# T-47D breast = system: T-47D breast
# TK-10 renal = system: TK-10 renal
# U251 CNS = system: U251 CNS
# UACC-257 melanoma = system: UACC-257 melanoma
# UACC-62 melanoma = system: UACC-62 melanoma
# UO-31 renal = system: UO-31 renal
structure (smiles),measurement,setting,value
CN1CCN(Cc2ccc(NC(=O)c3cnc(F)c(C#Cc4cnc(N)c5ncccc45)c3)cc2C(F)(F)F)CC1,TGI,NCI-H23 lung,9590 nM
same,GI50,NCI-H460 lung,182 nM
same,TGI,NCI-H460 lung,6490 nM
same,GI50,NCI-H522 lung,204 nM
same,TGI,NCI-H522 lung,9960 nM
same,GI50,NCI/ADR-RES ovarian,480 nM
same,TGI,NCI/ADR-RES ovarian,12500 nM
same,GI50,OVCAR-3 ovarian,516 nM
same,TGI,OVCAR-3 ovarian,9580 nM
same,GI50,OVCAR-4 ovarian,195 nM
same,TGI,OVCAR-4 ovarian,8150 nM
same,GI50,OVCAR-5 ovarian,417 nM
same,TGI,OVCAR-5 ovarian,9270 nM
same,GI50,OVCAR-8 ovarian,425 nM
same,TGI,OVCAR-8 ovarian,22200 nM
same,GI50,PC-3 prostate,320 nM
same,TGI,PC-3 prostate,10100 nM
same,GI50,RPMI-8226 leukemia,332 nM
same,TGI,RPMI-8226 leukemia,22700 nM
same,GI50,RXF 393 renal,122 nM
same,TGI,RXF 393 renal,567 nM
same,GI50,SF-268 CNS,324 nM
same,TGI,SF-268 CNS,6350 nM
same,GI50,SF-295 CNS,294 nM
same,TGI,SF-295 CNS,9240 nM
same,GI50,SF-539 CNS,199 nM
same,TGI,SF-539 CNS,2830 nM
same,GI50,SK-MEL-2 melanoma,114 nM
same,TGI,SK-MEL-2 melanoma,451 nM
same,GI50,SK-MEL-28 melanoma,126 nM
same,TGI,SK-MEL-28 melanoma,804 nM
same,GI50,SK-MEL-5 melanoma,735 nM
same,TGI,SK-MEL-5 melanoma,5050 nM
same,GI50,SK-OV-3 ovarian,263 nM
same,TGI,SK-OV-3 ovarian,8700 nM
same,GI50,SN12C renal,161 nM
same,TGI,SN12C renal,5570 nM
same,GI50,SNB-19 CNS,1940 nM
same,TGI,SNB-19 CNS,11900 nM
same,GI50,SNB-75 CNS,643 nM
same,TGI,SNB-75 CNS,6470 nM
same,GI50,SR leukemia,149 nM
same,TGI,SR leukemia,50000 nM
same,GI50,SW-620 colon,226 nM
same,TGI,SW-620 colon,5820 nM
same,GI50,T-47D breast,983 nM
same,TGI,T-47D breast,22300 nM
same,GI50,TK-10 renal,679 nM
same,TGI,TK-10 renal,11600 nM
same,GI50,U251 CNS,252 nM
same,TGI,U251 CNS,13200 nM
same,GI50,UACC-257 melanoma,339 nM
same,TGI,UACC-257 melanoma,6510 nM
same,GI50,UACC-62 melanoma,103 nM
same,TGI,UACC-62 melanoma,586 nM
same,GI50,UO-31 renal,140 nM
same,TGI,UO-31 renal,1160 nM
